Assays:
[1] = system: Puccinia recondita f. Sp. Tritici; assay: Puccinia recondita f. sp. tritici / wheat / leaf disc curative (brown rust); assay type: in vivo; conditions: foliar, 144 h, 200 ppm in the applied formulation, wheat leaf segments cv. Kanzler, applied 1 day after inoculation, assessed 6 to 8 days after application, vs untreated, read-out: disease control
Method in brief: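 Curative test: wheat leaf segments cv. Kanzler on agar inoculated with spore suspension, kept dark at 19 °C/75% RH, then sprayed 1 day post-inoculation with compound diluted in water. Incubated at 19 °C, 75% RH, 12 h light/dark; percent disease control versus untreated scored 6–8 days after application.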

[2] = system: Glomerella Lagenarium (Colletotrichum Lagenarium); assay: Glomerella lagenarium (Colletotrichum lagenarium) liquid culture / cucumber / preventative (anthracnose); assay type: cell-based; conditions: Colletotrichum orbiculare; 20 ppm in the applied formulation; liquid culture in PDB, 24° C., inhibition of growth measured photometrically 3 to 4 days after application, vs untreated; read-out: disease control
Method in brief: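 Conidia from cryogenic storage were mixed into potato dextrose broth. This was added to compound diluted from DMSO into 0.025% Tween20, tested at 20 ppm. Plates were incubated in the dark at 24 °C and 96% relative humidity, and growth was read photometrically after 2–7 days as % activity versus untreated check.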

[3] = system: Puccinia recondita f. Sp. Tritici; assay: Puccinia recondita f. sp. tritici / wheat / leaf disc preventative (brown rust); assay type: in vivo; conditions: foliar, 168 h, 200 ppm in the applied formulation, wheat leaf segments cv. Kanzler, preventative, inoculated 1 day after application, assessed 7 to 9 days after application, vs untreated, read-out: disease control
Method in brief: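 Wheat cv. Kanzler leaf segments on agar were sprayed with formulated compound in water, then inoculated with spores 1 day later. Incubated at 19° C, 75% rh, 12 h light/12 h dark; percent disease control versus untreated scored 7 to 9 days after application.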

Phakopsora pachyrhizi = Phakopsora pachyrhizi / soybean / leaf disc preventative (Asian soybean rust); assay type: in vivo; conditions: foliar, 288 h, 200 ppm in the applied formulation, soybean leaf disks, inoculated one day after application, assessed 12 to 14 days after application, vs untreated, read-out: disease control
Method in brief: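 Read-out is percent disease control relative to untreated check discs, assessed once untreated discs show adequate disease, 12 to 14 days after application. Compounds, tested at 200 ppm in the applied formulation, are sprayed onto soybean leaf discs one day before inoculation with a spore suspension.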

CCSc1ncn(Cc2ccc(-c3noc(C(F)(F)F)n3)cc2)n1 [Compound 1.208, 3-[4-[(3-ethylsulfanyl-1,2,4-triazol-1-yl)methyl]phenyl]-5-(trifluoromethyl)-1,2,4-oxadiazole]
≥ 80%: pest or weed control at 200 ppm [1] | inhibition of growth at 20 ppm [2] | pest or weed control at 200 ppm [3] | pest or weed control at 200 ppm (Phakopsora pachyrhizi)

FC(F)(F)c1nc(-c2ccc(Cn3cnnc3SCc3ccccc3)cc2)no1 [Compound 1.213, 3-[4-[(3-benzylsulfanyl-1,2,4-triazol-4-yl)methyl]phenyl]-5-(trifluoromethyl)-1,2,4-oxadiazole]
≥ 80%: pest or weed control at 200 ppm [1] | inhibition of growth at 20 ppm [2] | pest or weed control at 200 ppm [3] | pest or weed control at 200 ppm (Phakopsora pachyrhizi)

COc1nc(N)n(Cc2ccc(-c3noc(C(F)(F)F)n3)cc2)n1 [Compound 1.214, 5-methoxy-2-[[4-[5-(trifluoromethyl)-1,2,4-oxadiazol-3-yl]phenyl]methyl]-1,2,4-triazol-3-amine]
≥ 80%: pest or weed control at 200 ppm [1] | inhibition of growth at 20 ppm [2] | pest or weed control at 200 ppm [3] | pest or weed control at 200 ppm (Phakopsora pachyrhizi)

COc1nc(N)nn1Cc1ccc(-c2noc(C(F)(F)F)n2)cc1 [Compound 1.215, 5-methoxy-1-[[4-[5-(trifluoromethyl)-1,2,4-oxadiazol-3-yl]phenyl]methyl]-1,2,4-triazol-3-amine]
≥ 80%: pest or weed control at 200 ppm [1] | inhibition of growth at 20 ppm [2] | pest or weed control at 200 ppm [3] | pest or weed control at 200 ppm (Phakopsora pachyrhizi)

CCOC(=O)c1cccnc1-c1ccn(Cc2ccc(-c3noc(C(F)(F)F)n3)cc2)n1 [Compound 1.219, ethyl 2-[1-[[4-[5-(trifluoromethyl)-1,2,4-oxadiazol-3-yl]phenyl]methyl]pyrazol-3-yl]pyridine-3-carboxylate]
≥ 80%: pest or weed control at 200 ppm [1] | inhibition of growth at 20 ppm [2] | pest or weed control at 200 ppm [3] | pest or weed control at 200 ppm (Phakopsora pachyrhizi)

Nc1nc(C(F)F)nn1Cc1ccc(-c2noc(C(F)(F)F)n2)cc1 [Compound 1.222, 5-(difluoromethyl)-2-[[4-[5-(trifluoromethyl)-1,2,4-oxadiazol-3-yl]phenyl]methyl]-1,2,4-triazol-3-amine]
≥ 80%: pest or weed control at 200 ppm [1] | inhibition of growth at 20 ppm [2] | pest or weed control at 200 ppm [3] | pest or weed control at 200 ppm (Phakopsora pachyrhizi)

FC(F)(F)c1nc(-c2ccc(Cn3cnnc3)cc2)no1 [Compound 1.226, 3-[4-(1,2,4-triazol-4-ylmethyl)phenyl]-5-(trifluoromethyl)-1,2,4-oxadiazole]
≥ 80%: pest or weed control at 200 ppm [1] | inhibition of growth at 20 ppm [2] | pest or weed control at 200 ppm [3] | pest or weed control at 200 ppm (Phakopsora pachyrhizi)

FC(F)(F)c1nc(-c2ccc(Cn3cnc(-c4ccc(Cl)cc4)c3)cc2)no1 [Compound 1.229, 3-[4-[[4-(4-chlorophenyl)imidazol-1-yl]methyl]phenyl]-5-(trifluoromethyl)-1,2,4-oxadiazole]
≥ 80%: pest or weed control at 200 ppm [1] | inhibition of growth at 20 ppm [2] | pest or weed control at 200 ppm [3] | pest or weed control at 200 ppm (Phakopsora pachyrhizi)

COc1nc(Br)n(Cc2ccc(-c3noc(C(F)(F)F)n3)cc2)n1 [Compound 1.232, 3-[4-[(5-bromo-3-methoxy-1,2,4-triazol-1-yl)methyl]phenyl]-5-(trifluoromethyl)-1,2,4-oxadiazole]
≥ 80%: pest or weed control at 200 ppm [1] | inhibition of growth at 20 ppm [2] | pest or weed control at 200 ppm [3] | pest or weed control at 200 ppm (Phakopsora pachyrhizi)

COc1nc(Br)nn1Cc1ccc(-c2noc(C(F)(F)F)n2)cc1 [Compound 1.233, 3-[4-[(3-bromo-5-methoxy-1,2,4-triazol-1-yl)methyl]phenyl]-5-(trifluoromethyl)-1,2,4-oxadiazole]
≥ 80%: pest or weed control at 200 ppm [1] | inhibition of growth at 20 ppm [2] | pest or weed control at 200 ppm [3] | pest or weed control at 200 ppm (Phakopsora pachyrhizi)

COC(=O)c1cnn(Cc2ccc(-c3noc(C(F)(F)F)n3)cc2)c1C1CC1 [Compound 1.236, methyl 5-cyclopropyl-1-[[4-[5-(trifluoromethyl)-1,2,4-oxadiazol-3-yl]phenyl]methyl]pyrazole-4-carboxylate]
≥ 80%: pest or weed control at 200 ppm [1] | inhibition of growth at 20 ppm [2] | pest or weed control at 200 ppm [3] | pest or weed control at 200 ppm (Phakopsora pachyrhizi)

COC(=O)c1cn(Cc2ccc(-c3noc(C(F)(F)F)n3)cc2)nc1C1CC1 [Compound 1.237, methyl 3-cyclopropyl-1-[[4-[5-(trifluoromethyl)-1,2,4-oxadiazol-3-yl]phenyl]methyl]pyrazole-4-carboxylate]
≥ 80%: pest or weed control at 200 ppm [1] | inhibition of growth at 20 ppm [2] | pest or weed control at 200 ppm [3] | pest or weed control at 200 ppm (Phakopsora pachyrhizi)

COCc1nn(Cc2ccc(-c3noc(C(F)(F)F)n3)cc2)cc1C(=O)OC [Compound 1.238, methyl 3-(methoxymethyl)-1-[[4-[5-(trifluoromethyl)-1,2,4-oxadiazol-3-yl]phenyl]methyl]pyrazole-4-carboxylate]
≥ 80%: pest or weed control at 200 ppm [1] | inhibition of growth at 20 ppm [2] | pest or weed control at 200 ppm [3] | pest or weed control at 200 ppm (Phakopsora pachyrhizi)

COCc1c(C(=O)OC)cnn1Cc1ccc(-c2noc(C(F)(F)F)n2)cc1 [Compound 1.239, methyl 5-(methoxymethyl)-1-[[4-[5-(trifluoromethyl)-1,2,4-oxadiazol-3-yl]phenyl]methyl]pyrazole-4-carboxylate]
≥ 80%: pest or weed control at 200 ppm [1] | inhibition of growth at 20 ppm [2] | pest or weed control at 200 ppm [3] | pest or weed control at 200 ppm (Phakopsora pachyrhizi)

FC(F)(F)c1nc(-c2ccc(Cn3ccc(Cl)n3)cc2)no1 [Compound 1.243, 3-[4-[(3-chloropyrazol-1-yl)methyl]phenyl]-5-(trifluoromethyl)-1,2,4-oxadiazole]
≥ 80%: pest or weed control at 200 ppm [1] | inhibition of growth at 20 ppm [2] | pest or weed control at 200 ppm [3] | pest or weed control at 200 ppm (Phakopsora pachyrhizi)

FC(F)(F)c1nc(-c2ccc(Cn3cccc4nnnc3-4)cc2)no1 [Compound 1.244, 3-[4-(triazolo[4,5-b]pyridin-4-ylmethyl)phenyl]-5-(trifluoromethyl)-1,2,4-oxadiazole]
≥ 80%: pest or weed control at 200 ppm [1] | inhibition of growth at 20 ppm [2] | pest or weed control at 200 ppm [3] | pest or weed control at 200 ppm (Phakopsora pachyrhizi)

Cc1cc(C)n(Cc2ccc(-c3noc(C(F)(F)F)n3)c(F)c2)n1 [Compound 1.253, 3-[4-[(3,5-dimethylpyrazol-1-yl)methyl]-2-fluoro-phenyl]-5-(trifluoromethyl)-1,2,4-oxadiazole]
≥ 80%: pest or weed control at 200 ppm [1] | inhibition of growth at 20 ppm [2] | pest or weed control at 200 ppm [3] | pest or weed control at 200 ppm (Phakopsora pachyrhizi)

N#Cc1ncnn1Cc1ccc(-c2noc(C(F)(F)F)n2)c(F)c1 [Compound 1.256, 2-[[3-fluoro-4-[5-(trifluoromethyl)-1,2,4-oxadiazol-3-yl]phenyl]methyl]-1,2,4-triazole-3-carbonitrile]
≥ 80%: pest or weed control at 200 ppm [1] | inhibition of growth at 20 ppm [2] | pest or weed control at 200 ppm [3] | pest or weed control at 200 ppm (Phakopsora pachyrhizi)

CC(C)OC(=O)c1cnn(Cc2ccc(-c3noc(C(F)(F)F)n3)cc2)c1 [Compound 1.263, isopropyl 1-[[4-[5-(trifluoromethyl)-1,2,4-oxadiazol-3-yl]phenyl]methyl]pyrazole-4-carboxylate]
≥ 80%: pest or weed control at 200 ppm [1] | inhibition of growth at 20 ppm [2] | pest or weed control at 200 ppm [3] | pest or weed control at 200 ppm (Phakopsora pachyrhizi)

CC(C)ON=Cc1cnn(Cc2ccc(-c3noc(C(F)(F)F)n3)cc2)c1 [Compound 1.288, N-isopropoxy-1-[1-[[4-[5-(trifluoromethyl)-1,2,4-oxadiazol-3-yl]phenyl]methyl]pyrazol-4-yl]methanimine]
≥ 80%: pest or weed control at 200 ppm [1] | inhibition of growth at 20 ppm [2] | pest or weed control at 200 ppm [3] | pest or weed control at 200 ppm (Phakopsora pachyrhizi)

From patent US10798941B2, “Microbiocidal oxadiazole derivatives” (SYNGENTA PARTICIPATIONS AG, priority 2016, dated 2020)
